Measured values as given in ChEMBL document CHEMBL5653615 (J Biol Chem, 2013).

Columns and labels:
[1] = target: Ribosomal protein S6 kinase alpha-2 (Homo sapiens) (UniProt Q15349); assay: Inhibition of human RSK3 at 18.6 nM by HotSpot assay relative to control
[2] = target: T1, Protein kinase C iota type (Homo sapiens) (UniProt P41743); assay: Inhibition of human PKCiota at 18.6 nM by HotSpot assay relative to control
T1 sequence (whole entry): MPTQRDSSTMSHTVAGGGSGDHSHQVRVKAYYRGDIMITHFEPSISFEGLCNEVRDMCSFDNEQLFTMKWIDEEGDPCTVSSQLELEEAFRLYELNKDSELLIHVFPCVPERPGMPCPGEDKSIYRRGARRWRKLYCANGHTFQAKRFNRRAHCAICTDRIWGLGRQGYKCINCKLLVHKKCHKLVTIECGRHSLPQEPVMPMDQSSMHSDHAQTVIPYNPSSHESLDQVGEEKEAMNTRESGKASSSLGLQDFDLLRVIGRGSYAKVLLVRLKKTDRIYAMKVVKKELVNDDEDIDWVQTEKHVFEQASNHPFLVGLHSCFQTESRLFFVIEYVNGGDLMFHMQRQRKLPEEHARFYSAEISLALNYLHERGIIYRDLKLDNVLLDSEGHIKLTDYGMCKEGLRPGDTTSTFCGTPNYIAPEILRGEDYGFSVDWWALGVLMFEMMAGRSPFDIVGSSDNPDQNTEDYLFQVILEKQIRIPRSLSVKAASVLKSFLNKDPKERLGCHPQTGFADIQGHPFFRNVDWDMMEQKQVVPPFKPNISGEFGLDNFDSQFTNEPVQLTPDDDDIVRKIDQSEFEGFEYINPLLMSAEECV

[3] = target: Tyrosine-protein kinase HCK (Homo sapiens) (UniProt P08631); assay: Inhibition of human HCK at 18.6 nM by HotSpot assay relative to control
Sequence of Tyrosine-protein kinase HCK (Homo sapiens) (P08631 2-526 limits assumed): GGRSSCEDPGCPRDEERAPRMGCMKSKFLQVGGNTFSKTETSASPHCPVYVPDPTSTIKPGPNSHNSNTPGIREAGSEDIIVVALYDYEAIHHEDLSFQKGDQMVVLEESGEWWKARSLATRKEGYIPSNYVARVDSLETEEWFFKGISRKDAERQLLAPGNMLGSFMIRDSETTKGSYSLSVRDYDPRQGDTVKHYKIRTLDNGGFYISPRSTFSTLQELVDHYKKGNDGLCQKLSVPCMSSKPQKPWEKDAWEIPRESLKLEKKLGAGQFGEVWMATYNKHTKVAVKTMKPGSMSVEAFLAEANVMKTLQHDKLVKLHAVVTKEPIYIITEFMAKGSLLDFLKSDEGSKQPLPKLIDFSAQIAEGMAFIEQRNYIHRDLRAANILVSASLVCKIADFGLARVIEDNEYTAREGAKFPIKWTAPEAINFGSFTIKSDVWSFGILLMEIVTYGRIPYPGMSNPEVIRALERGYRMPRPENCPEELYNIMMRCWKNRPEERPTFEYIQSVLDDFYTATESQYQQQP

[4] = target: T2, Ephrin type-B receptor 2 (Homo sapiens) (UniProt P29323); assay: Inhibition of human EPHB2 at 18.6 nM by HotSpot assay relative to control
T2 sequence (whole entry): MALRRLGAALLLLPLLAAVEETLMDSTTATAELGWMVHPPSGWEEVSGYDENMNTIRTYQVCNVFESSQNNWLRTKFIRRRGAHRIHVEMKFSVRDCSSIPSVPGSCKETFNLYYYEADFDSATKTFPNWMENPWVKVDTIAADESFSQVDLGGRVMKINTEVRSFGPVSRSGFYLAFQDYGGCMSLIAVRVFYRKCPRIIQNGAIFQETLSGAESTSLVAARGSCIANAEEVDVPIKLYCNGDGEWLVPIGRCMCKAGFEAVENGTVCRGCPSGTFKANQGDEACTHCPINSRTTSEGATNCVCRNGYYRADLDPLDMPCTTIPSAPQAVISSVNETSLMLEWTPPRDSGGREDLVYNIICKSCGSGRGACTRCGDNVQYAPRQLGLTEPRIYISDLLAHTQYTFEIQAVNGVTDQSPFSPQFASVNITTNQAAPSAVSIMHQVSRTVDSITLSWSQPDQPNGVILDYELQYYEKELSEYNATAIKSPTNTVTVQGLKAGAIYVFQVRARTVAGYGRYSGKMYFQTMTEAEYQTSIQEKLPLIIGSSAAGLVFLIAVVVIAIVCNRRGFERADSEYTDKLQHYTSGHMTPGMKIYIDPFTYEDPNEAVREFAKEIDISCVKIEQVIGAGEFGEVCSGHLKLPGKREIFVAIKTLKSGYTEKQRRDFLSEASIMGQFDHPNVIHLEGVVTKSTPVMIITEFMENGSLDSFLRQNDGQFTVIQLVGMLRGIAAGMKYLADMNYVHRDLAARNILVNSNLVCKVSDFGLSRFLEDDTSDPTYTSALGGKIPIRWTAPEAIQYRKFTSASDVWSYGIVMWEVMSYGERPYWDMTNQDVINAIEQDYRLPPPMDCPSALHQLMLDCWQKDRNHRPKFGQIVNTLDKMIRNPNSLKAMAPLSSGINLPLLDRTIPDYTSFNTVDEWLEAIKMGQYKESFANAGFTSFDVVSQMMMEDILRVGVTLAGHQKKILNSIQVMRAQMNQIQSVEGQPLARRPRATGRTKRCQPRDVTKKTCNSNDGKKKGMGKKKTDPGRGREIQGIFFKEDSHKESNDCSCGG

[5] = target: T3, Inhibitor of nuclear factor kappa-B kinase subunit epsilon (Homo sapiens) (UniProt Q14164); assay: Inhibition of human IKKe at 18.6 nM by HotSpot assay relative to control
T3 sequence (whole entry): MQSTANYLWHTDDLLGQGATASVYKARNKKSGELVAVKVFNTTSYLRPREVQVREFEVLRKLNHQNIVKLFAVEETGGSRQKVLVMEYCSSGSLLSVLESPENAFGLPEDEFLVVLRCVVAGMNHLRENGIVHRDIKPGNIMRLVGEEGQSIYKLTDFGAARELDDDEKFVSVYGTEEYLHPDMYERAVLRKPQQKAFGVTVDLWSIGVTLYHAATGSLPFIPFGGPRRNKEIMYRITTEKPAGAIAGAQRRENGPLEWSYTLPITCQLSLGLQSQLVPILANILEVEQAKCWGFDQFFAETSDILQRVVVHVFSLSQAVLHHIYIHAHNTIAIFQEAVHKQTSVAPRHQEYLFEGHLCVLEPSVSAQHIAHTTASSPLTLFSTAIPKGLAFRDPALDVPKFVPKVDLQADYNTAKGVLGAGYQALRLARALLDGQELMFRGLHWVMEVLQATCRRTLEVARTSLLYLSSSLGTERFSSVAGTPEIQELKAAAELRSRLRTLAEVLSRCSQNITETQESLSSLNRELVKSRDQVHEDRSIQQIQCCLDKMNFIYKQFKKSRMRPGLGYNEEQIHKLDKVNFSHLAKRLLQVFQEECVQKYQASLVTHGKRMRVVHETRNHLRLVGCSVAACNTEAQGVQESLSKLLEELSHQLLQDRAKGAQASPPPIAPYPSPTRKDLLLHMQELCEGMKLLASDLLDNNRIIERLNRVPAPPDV

[6] = target: MAP kinase-activated protein kinase 3 (Homo sapiens) (UniProt Q16644); assay: Inhibition of human MAPKAPK3 at 18.6 nM by HotSpot assay relative to control
Sequence of MAP kinase-activated protein kinase 3 (Homo sapiens) (Q16644 whole entry, looked up): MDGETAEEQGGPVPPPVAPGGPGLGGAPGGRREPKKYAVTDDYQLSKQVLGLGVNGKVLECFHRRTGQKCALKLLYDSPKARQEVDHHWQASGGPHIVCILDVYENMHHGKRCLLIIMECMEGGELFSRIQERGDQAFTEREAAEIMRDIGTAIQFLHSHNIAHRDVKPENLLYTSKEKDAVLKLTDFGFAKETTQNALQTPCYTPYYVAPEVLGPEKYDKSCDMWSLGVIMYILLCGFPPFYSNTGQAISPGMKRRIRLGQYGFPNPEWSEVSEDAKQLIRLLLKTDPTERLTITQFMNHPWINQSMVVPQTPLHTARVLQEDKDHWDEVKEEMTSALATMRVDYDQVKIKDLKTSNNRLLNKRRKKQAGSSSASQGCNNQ

[7] = target: SRSF protein kinase 2 (Homo sapiens) (UniProt P78362); assay: Inhibition of human SRPK2 at 18.6 nM by HotSpot assay relative to control
Sequence of SRSF protein kinase 2 (Homo sapiens) (P78362 whole entry, looked up): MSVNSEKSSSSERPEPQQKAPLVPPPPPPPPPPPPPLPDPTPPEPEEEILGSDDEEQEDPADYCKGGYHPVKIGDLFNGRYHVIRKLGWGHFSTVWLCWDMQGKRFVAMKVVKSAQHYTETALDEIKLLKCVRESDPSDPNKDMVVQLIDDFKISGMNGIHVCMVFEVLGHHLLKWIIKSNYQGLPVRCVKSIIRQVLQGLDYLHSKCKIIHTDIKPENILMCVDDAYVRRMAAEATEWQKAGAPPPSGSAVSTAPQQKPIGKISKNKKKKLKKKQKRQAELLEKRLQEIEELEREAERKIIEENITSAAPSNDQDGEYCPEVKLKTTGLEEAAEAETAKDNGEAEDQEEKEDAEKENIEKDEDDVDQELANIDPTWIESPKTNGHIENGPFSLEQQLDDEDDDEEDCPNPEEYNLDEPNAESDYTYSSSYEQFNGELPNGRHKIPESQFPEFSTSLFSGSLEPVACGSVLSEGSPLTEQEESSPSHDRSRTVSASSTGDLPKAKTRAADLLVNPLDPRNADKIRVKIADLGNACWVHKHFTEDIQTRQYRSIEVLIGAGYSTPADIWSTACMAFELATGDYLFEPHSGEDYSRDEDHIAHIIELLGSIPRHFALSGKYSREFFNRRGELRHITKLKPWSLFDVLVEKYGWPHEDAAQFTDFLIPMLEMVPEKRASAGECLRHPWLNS

[8] = target: T1, Protein kinase C iota type (Homo sapiens); assay: Inhibition of human PKCiota at 1.82 nM by HotSpot assay relative to control
[9] = target: Calcium/calmodulin-dependent protein kinase kinase 1 (Homo sapiens) (UniProt Q8N5S9); assay: Inhibition of human CAMKK1 at 1.82 nM by HotSpot assay relative to control
Sequence of Calcium/calmodulin-dependent protein kinase kinase 1 (Homo sapiens) (Q8N5S9 whole entry, looked up, canonical isoform): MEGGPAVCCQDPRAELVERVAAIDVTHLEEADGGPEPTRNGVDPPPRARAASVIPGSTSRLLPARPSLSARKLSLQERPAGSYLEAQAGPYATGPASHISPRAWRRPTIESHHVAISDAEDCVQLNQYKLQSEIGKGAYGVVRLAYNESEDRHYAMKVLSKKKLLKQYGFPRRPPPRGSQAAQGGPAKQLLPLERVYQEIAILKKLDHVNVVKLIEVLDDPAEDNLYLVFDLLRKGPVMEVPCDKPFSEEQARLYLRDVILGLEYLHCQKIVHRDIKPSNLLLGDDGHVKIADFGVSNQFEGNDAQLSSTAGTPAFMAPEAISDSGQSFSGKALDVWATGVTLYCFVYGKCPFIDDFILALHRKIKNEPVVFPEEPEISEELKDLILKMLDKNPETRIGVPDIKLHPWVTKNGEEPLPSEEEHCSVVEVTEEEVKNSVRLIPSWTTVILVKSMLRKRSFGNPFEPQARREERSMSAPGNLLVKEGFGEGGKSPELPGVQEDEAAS

[10] = target: Casein kinase I isoform gamma-2 (Homo sapiens) (UniProt P78368); assay: Inhibition of human CK1g2 at 1.82 nM by HotSpot assay relative to control
Sequence of Casein kinase I isoform gamma-2 (Homo sapiens) (P78368 whole entry, looked up, canonical isoform): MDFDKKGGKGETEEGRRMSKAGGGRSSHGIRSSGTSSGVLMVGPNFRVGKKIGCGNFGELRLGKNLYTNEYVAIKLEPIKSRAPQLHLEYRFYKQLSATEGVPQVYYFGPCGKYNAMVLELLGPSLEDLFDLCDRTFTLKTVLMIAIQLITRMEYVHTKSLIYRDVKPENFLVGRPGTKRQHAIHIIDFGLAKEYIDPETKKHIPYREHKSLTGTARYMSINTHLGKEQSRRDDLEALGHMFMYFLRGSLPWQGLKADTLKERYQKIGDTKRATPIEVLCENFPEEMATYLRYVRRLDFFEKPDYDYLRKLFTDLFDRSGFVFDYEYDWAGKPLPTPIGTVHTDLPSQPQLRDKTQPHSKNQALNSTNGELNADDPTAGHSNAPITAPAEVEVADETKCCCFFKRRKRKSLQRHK

[11] = target: Calcium/calmodulin-dependent protein kinase type 1G (Homo sapiens) (UniProt Q96NX5); assay: Inhibition of human CAMK1g at 1.82 nM by HotSpot assay relative to control
Sequence of Calcium/calmodulin-dependent protein kinase type 1G (Homo sapiens) (Q96NX5 whole entry): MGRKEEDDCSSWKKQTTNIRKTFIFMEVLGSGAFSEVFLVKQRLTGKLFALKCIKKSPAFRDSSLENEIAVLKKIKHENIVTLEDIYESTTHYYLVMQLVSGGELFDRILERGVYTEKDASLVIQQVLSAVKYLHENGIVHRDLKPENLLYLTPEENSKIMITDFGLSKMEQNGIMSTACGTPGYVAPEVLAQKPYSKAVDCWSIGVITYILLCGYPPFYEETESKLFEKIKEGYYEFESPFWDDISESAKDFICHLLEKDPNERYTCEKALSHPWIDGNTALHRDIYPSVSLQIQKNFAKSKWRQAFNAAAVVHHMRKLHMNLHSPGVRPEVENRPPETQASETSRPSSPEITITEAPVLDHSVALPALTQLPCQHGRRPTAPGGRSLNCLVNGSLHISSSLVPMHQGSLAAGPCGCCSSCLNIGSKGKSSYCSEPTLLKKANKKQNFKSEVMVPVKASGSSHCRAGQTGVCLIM

Sequence of Ribosomal protein S6 kinase alpha-2 (Homo sapiens) (Q15349 whole entry): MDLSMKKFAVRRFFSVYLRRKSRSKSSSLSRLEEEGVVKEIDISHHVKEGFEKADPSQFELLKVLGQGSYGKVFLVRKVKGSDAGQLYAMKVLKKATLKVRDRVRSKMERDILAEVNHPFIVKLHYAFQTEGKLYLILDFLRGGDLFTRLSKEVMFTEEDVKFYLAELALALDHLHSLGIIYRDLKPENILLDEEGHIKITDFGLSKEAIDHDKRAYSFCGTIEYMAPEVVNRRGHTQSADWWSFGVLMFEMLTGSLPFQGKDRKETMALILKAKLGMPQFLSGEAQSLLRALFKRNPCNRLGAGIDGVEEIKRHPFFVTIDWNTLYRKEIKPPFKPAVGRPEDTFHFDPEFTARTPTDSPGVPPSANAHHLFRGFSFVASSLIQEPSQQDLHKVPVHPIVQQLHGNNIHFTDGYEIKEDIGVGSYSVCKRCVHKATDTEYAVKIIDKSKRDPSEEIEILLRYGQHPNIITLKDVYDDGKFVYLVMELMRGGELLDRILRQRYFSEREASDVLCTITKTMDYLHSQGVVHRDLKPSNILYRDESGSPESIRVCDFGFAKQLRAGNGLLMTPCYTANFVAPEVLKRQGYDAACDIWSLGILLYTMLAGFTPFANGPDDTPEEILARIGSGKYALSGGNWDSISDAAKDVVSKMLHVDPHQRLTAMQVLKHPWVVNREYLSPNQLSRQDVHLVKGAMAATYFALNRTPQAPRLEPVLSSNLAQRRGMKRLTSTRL

inhibition [1] [%]	inhibition [2] [%]	inhibition [3] [%]	inhibition [4] [%]	inhibition [5] [%]	inhibition [6] [%]	inhibition [7] [%]	inhibition [8] [%]	inhibition [9] [%]	inhibition [10] [%]	inhibition [11] [%]	SMILES
-2.23	-2.19	10.3	-7.65	3.19	0.25	-1.64					C[C@]1(O)C[C@@H](c2nc(-c3ccc4ccc(-c5ccccc5)nc4c3)c3c(N)nccn32)C1
							-0.86	-5.91	-3.24	7.27	C[C@@]1(C(=O)Nc2ccc(F)nc2)CCCN1c1nc(Nc2cc(C3CC3)n[nH]2)c2cccn2n1
